Results on 105 compounds are retold here after PubChem BioAssay AID1996.

≈ marks a conversion by molar mass, not a printed value.

The conditions of the data set: buffer; pH 7.4; 200.0 µM.
For `Cc1ccc(N(CC(=O)N2CCc3ccccc3C2)S(C)(=O)=O)cc1`, the kinetic solubility was above 53.8 µg/mL.

For `NC(=O)NOCc1cccc(Cl)c1`, the solubility (kinetic) was above 30.1 µg/mL.

Turning to `O=C(O)CCC(=O)NCc1c(Cl)cccc1Sc1ccc(Cl)cc1`, the solubility (kinetic) was found to be 38.3 µg/mL (≈ 99.7 µM). For the compound `Cc1cc(C=O)c(C)n1-c1ccc(NC2CCCC2)c([N+](=O)[O-])c1`, the kinetic solubility amounted to 5.1 µg/mL (≈ 15.6 µM). Under `CN(C)c1ccc(C(=O)OCC(=O)N2CCCC2)cc1` stands above 41.5 µg/mL. `O=C(Nc1ccccc1F)NC1CCCCCCC1` displayed a solubility (kinetic) of 6.9 µg/mL (≈ 26.1 µM). Turning to `O=C1OC(CCl)CN1Cc1ccc([N+](=O)[O-])cc1` (stereo not given), the kinetic solubility was above 40.6 µg/mL. `Cc1cc(=O)oc2c(CN3CCN(CCO)CC3)c(O)ccc12` had a solubility (kinetic) above 47.8 µg/mL. Consider `CCN(CC)C(=O)c1cc(Cl)ccc1NC(=O)c1ccco1`, for which the solubility (kinetic) is above 48.1 µg/mL. As for `CCOC(=O)Oc1ccc(/C=C2\N=C(C)OC2=O)cc1`, the solubility (kinetic) is 35.9 µg/mL (≈ 130 µM).

In the case of `COC(=O)C1=C(N)Oc2c(oc(CO)cc2=O)C1c1ccc(F)cc1` (stereo not given), the kinetic solubility was above 52.1 µg/mL. In turn, `O=C(Nc1ccc2c(c1)COC2=O)c1ccc(Cl)c(Cl)c1` showed a solubility (kinetic) of 3.5 µg/mL (≈ 10.9 µM).

In turn, `O=C(CCn1c(=O)sc2ccccc21)NC1CCCCC1` returned a solubility (kinetic) of 27.4 µg/mL (≈ 90 µM). `N#Cc1nc(-c2ccc(F)cc2)oc1NCCCn1ccnc1` displayed a solubility (kinetic) of 2.5 µg/mL (≈ 8.03 µM).

With `O=C(c1cn(Cc2ccccc2)c2ccccc12)C1CC1`, the kinetic solubility was below 0.6 µg/mL.

Turning to `O=C(COC(=O)c1ccc2ccccc2c1O)Nc1ccccc1`, the solubility (kinetic) was determined as 2.3 µg/mL (≈ 7.16 µM). In turn, `O=C(NC(=S)Nc1cccc(Cl)c1Cl)C1CC1` had a kinetic solubility of 0.8 µg/mL (≈ 2.77 µM). For the compound `O=C(Nc1cccc(Cl)c1)C1CCCN(c2cnccn2)C1` (stereo not given), the solubility (kinetic) is above 47.5 µg/mL. `CCOc1ccc(CN(C)C(=O)CNC(=O)c2ccccc2)cc1` returned a kinetic solubility above 49 µg/mL.

In turn, `O=c1ccc(C(F)(F)F)cn1Cc1cc(=O)n2ccsc2n1` registered a kinetic solubility of 44.2 µg/mL (≈ 135 µM). The value for `CN(Cc1cccc(F)c1)C(=O)c1ccc2c(=O)n3c(nc2c1)CCC3` was 49.8 µg/mL (≈ 142 µM); that for `CCN(CC(=O)NC1CCS(=O)(=O)C1)c1ccc(S(=O)(=O)N(CC)CC)cc1[N+](=O)[O-]` (stereo not given) was above 71.5 µg/mL. The compound `COc1cccc(/C=N/N2CCN(Cc3ccccc3)CC2)c1O` yielded a solubility (kinetic) above 48.8 µg/mL. Compound `Cc1c(C(=O)N2CCc3ccccc3C2)oc2ccccc12` showed a solubility (kinetic) of 7.5 µg/mL (≈ 25.7 µM). Under `O=C(c1ccc(C(=O)N2CCN(c3ccccc3F)CC2)nc1)N1CCN(c2ccccc2F)CC1` stands 3.5 µg/mL (≈ 7.12 µM); under `COc1ccc(OC)c(CNS(=O)(=O)c2cn(C)cn2)c1`, 46.5 µg/mL (≈ 149 µM); under `O=C(NC1CC1)C1CCN(c2ncccn2)CC1`, above 36.9 µg/mL. Under `CN1CCN(C(=O)c2ccc(CNS(=O)(=O)c3ccc(F)c(Cl)c3)cc2)CC1` stands 59.4 µg/mL (≈ 139 µM); under `CCOc1ccc2nc(N(CCN(C)C)C(=O)/C=C/c3cccs3)sc2c1.Cl`, below 0.3 µg/mL. As for `O=C1[C@@H]2CSCN2C(=O)CN1Cc1ccc(F)cc1`, the solubility (kinetic) was above 42 µg/mL.

The compound `Cc1cc(C)nc(SCC(=O)Nc2nonc2N)n1` returned a solubility (kinetic) above 42 µg/mL.

Consider `O=[N+]([O-])c1cccc(S(=O)(=O)N2CCN(c3ccccn3)CC2)c1`, for which the solubility (kinetic) came out at 1.3 µg/mL (≈ 3.73 µM). Consider `CN(C)CCN=Cc1c(O)n(Cc2ccc3c(c2)OCO3)c(=S)[nH]c1=O`, for which the kinetic solubility turned out to be 55.8 µg/mL (≈ 148 µM). As to `CCC(CC)C(=O)N1CC(=O)Nc2ccc(C)cc2C1c1ccccc1` (stereo not given), the kinetic solubility worked out at 2.4 µg/mL (≈ 6.85 µM). With `CCc1cc(C(=O)Nc2ncccc2O)sc1C`, the solubility (kinetic) is above 39.3 µg/mL. The compound `Cc1ccc(NC(=O)Nc2cnccn2)c(C)c1` displayed a solubility (kinetic) of 2.2 µg/mL (≈ 9.08 µM).

`C=CCNC(=S)N1CCN(c2ncc(C(F)(F)F)cc2Cl)CC1` returned a kinetic solubility of 35.7 µg/mL (≈ 97.9 µM). `Fc1cccc(NC(=S)Nc2cccnc2)c1` showed a solubility (kinetic) above 37.1 µg/mL. Take `CC(C)CN1CCN(Cc2ccccc2C(F)(F)F)CC1CCO` (stereo not given): the solubility (kinetic) came out at 48.7 µg/mL (≈ 141 µM). The compound `O=C(COc1cccnc1[N+](=O)[O-])N1CCC(Cc2ccccc2)CC1` returned a kinetic solubility of 51.9 µg/mL (≈ 146 µM). `O=C(NCc1cccnc1)/C(=C/c1ccc([N+](=O)[O-])cc1)NC(=O)c1ccccc1` gave a solubility (kinetic) of 10.2 µg/mL (≈ 25.3 µM). For `N#Cc1cccc(C(=O)OCC(=O)NCc2ccco2)c1`, the solubility (kinetic) was 31.2 µg/mL (≈ 110 µM).

`O=C(CSc1nc(C2CC2)nc2ccccc12)Nc1ccccc1` gave a kinetic solubility below 0.2 µg/mL. `CCC1(C)SC(N)=NN1C(C)=O` (stereo not given): the kinetic solubility was above 28.1 µg/mL.

The compound `CC(=O)C(C(c1ccccc1)c1c[nH]c2ccccc12)[N+](=O)[O-]` (stereo not given) came in with a kinetic solubility of 29.1 µg/mL (≈ 94.4 µM). In the case of `N/C(=N\OCC(=O)Nc1ccc(F)c(Cl)c1)c1ccccc1`, the solubility (kinetic) was above 48.3 µg/mL. With `CCOc1ccccc1NC(=O)c1ccc([N+](=O)[O-])cc1`, the kinetic solubility turned out to be 2.7 µg/mL (≈ 9.43 µM). Under `CCCC(C(=O)Nc1ccc2c(C)cc(=O)oc2c1)c1ccccc1` (stereo not given) stands 2.9 µg/mL (≈ 8.65 µM); under `O=C(Nc1cccc([N+](=O)[O-])c1)NC1CCS(=O)(=O)C1` (stereo not given), above 44.9 µg/mL. The compound `CCN(CC)CCN=Cc1c(O)n(Cc2ccco2)c(=O)[nH]c1=O` yielded a solubility (kinetic) above 50.2 µg/mL.

The compound `Cc1cc2ccccn2c1C(=O)c1ccc(S(=O)(=O)N(C)C)cc1` showed a kinetic solubility of 1.1 µg/mL (≈ 3.21 µM).

`CCOc1ccc(N2C(=O)c3ccccc3NC2(C)CC)cc1` (stereo not given) gave a solubility (kinetic) above 46.6 µg/mL. `CCOC(=O)c1cc2c(=O)c3cc(C)ccc3oc2nc1C` displayed a solubility (kinetic) below 0.6 µg/mL. In turn, `OCCCc1nc2ccccc2n1CCCCOc1ccccc1` had a kinetic solubility of 44.6 µg/mL (≈ 137 µM).

For the compound `O=C1c2ccccc2C(=O)N1CCc1ccccc1`, the kinetic solubility was 7.8 µg/mL (≈ 31 µM).

`COc1ccc(NC(=O)C2CCOC(C)(C)C2)cc1` (stereo not given) had a kinetic solubility above 39.5 µg/mL. On to `Cc1ccc(Cl)cc1N1CCN(C(=S)NCc2ccco2)CC1`, for which the kinetic solubility was 1 µg/mL (≈ 2.86 µM). For the compound `Cc1ccc(S(=O)(=O)NCc2ccccn2)c(C)c1`, the solubility (kinetic) is above 41.5 µg/mL. `Cc1cc(NC(=O)c2ccc(C)c(C)c2)no1` returned a kinetic solubility of 3.6 µg/mL (≈ 15.6 µM). In the case of `COc1ccc2oc3c(c2c1)NC(=O)CN=C3c1ccccc1`, the solubility (kinetic) worked out at 3.1 µg/mL (≈ 10.1 µM). Turning to `c1ccc(CCNC2=NCCS2)cc1`, the solubility (kinetic) is above 30.9 µg/mL. As to `Cc1cccc(NC(=S)N(C)C2CCCCC2)c1`, the solubility (kinetic) was determined as 30.1 µg/mL (≈ 115 µM). `CN(C(=O)COC(=O)c1cncc(Br)c1)C1CCCCC1` came in with a solubility (kinetic) above 53.3 µg/mL. In turn, `O=C(NCc1cccnc1)C1CC(c2ccccc2O)=NO1` (stereo not given) gave a kinetic solubility above 44.6 µg/mL. In turn, `CC1CCN(C(=O)CN2C(=O)C(=O)N(C)C2=O)c2ccccc2S1` (stereo not given) came in with a solubility (kinetic) above 52.1 µg/mL.

The compound `Fc1ccc(OCCOCCN2CCNCC2)cc1.O=C(O)C(=O)O` displayed a kinetic solubility of 51 µg/mL. On to `O=C(N[C@@H](Cc1ccccc1)C(=O)OCc1ccccc1)c1ccco1`, for which the kinetic solubility was 32.4 µg/mL (≈ 92.7 µM). As for `NC(=O)NC(=O)CN1c2cccc3cccc(c23)S1(=O)=O`, the solubility (kinetic) came out at 3.7 µg/mL (≈ 12.1 µM). `Cl.c1ccc(-c2ccc(CNC3CC3)cc2)cc1` showed a solubility (kinetic) of 37.9 µg/mL. Take `CC1=CC(C)(C)N(C(=O)Nc2ccccc2)c2ccccc21`: the kinetic solubility turned out to be 7.8 µg/mL (≈ 26.7 µM). Compound `CCOc1cccc(CNCc2ccncc2)c1` displayed a kinetic solubility of 27.4 µg/mL (≈ 113 µM). Under `COc1ccc(C(CC(=O)N2CCCC2)c2ccc(F)cc2)cc1` (stereo not given) stands 44.3 µg/mL (≈ 135 µM); under `CCN(c1ccccc1)S(=O)(=O)c1cccc(C(=O)Nc2ccc(C)cn2)c1`, 9.7 µg/mL (≈ 24.5 µM); under `CC1=CC(=C(C#N)C#N)c2ccccc2N1C`, 2.7 µg/mL (≈ 12.2 µM). In turn, `CCOC(=O)COc1ccccc1/C=C1\NC(=O)NC1=O` returned a kinetic solubility of 33 µg/mL (≈ 114 µM). `Cc1ccc(N(Cc2ccccc2O)C(=O)c2ccccc2F)cc1` yielded a kinetic solubility below 0.7 µg/mL.

As for `CC1CC(C)(C)NC(=S)N1CCC(=O)NCc1ccc(F)cc1` (stereo not given), the solubility (kinetic) was above 50.6 µg/mL.

Consider `Cc1cc2c(cc1C)C(c1ccsc1)CC(=O)N2` (stereo not given), for which the kinetic solubility turned out to be 5.1 µg/mL (≈ 19.8 µM).

The compound `S=C(CN1CCCC1=S)N1CCOCC1` had a solubility (kinetic) above 36.7 µg/mL. `CC(C(=O)Nc1ccc(F)c(F)c1F)N(C)CCOc1ccccc1` (stereo not given) had a solubility (kinetic) of 13.6 µg/mL (≈ 38.6 µM). The value for `CCOc1ccccc1NC(=S)NC(=O)C1CC1` was 2.6 µg/mL (≈ 9.84 µM); that for `Cc1ccc(-c2ccc(C#N)c(=O)n2CC(=O)N(C)C)cc1` was 3.3 µg/mL (≈ 11.2 µM). The compound `CCOc1cc(C(=O)NC)cc(Br)c1OCc1ccccc1` yielded a solubility (kinetic) below 0.8 µg/mL. In turn, `CC(C)Oc1nc(-c2ccc(Cl)cc2)nc2ccccc12` registered a solubility (kinetic) below 0.3 µg/mL. For the compound `NS(=O)(=O)c1ccc(Sc2ccc3c(c2)CCC3)nc1`, the kinetic solubility worked out at 2.5 µg/mL (≈ 8.16 µM). The value for `O=C(O)CC1c2ccccc2CCN1S(=O)(=O)c1cccs1` (stereo not given) was above 50.6 µg/mL; that for `COc1cc2c(cc1OC)CN(CC(=O)NC(=O)NC1CCCCC1)CC2` was above 56.3 µg/mL. Take `CCOC(=O)C1CCCN(CC(=O)c2c[nH]c3ccc(C)cc23)C1` (stereo not given): the kinetic solubility is 46.5 µg/mL (≈ 142 µM). As to `Cc1cc(Oc2ccc(N)cn2)ccc1Cl`, the kinetic solubility worked out at 30.8 µg/mL (≈ 131 µM). `O=C(NC1CCCCCC1)c1ccco1` came in with a solubility (kinetic) above 31.1 µg/mL.

For the compound `Oc1cccc(/C=N/NC(=S)Nc2cccnc2)c1O`, the solubility (kinetic) is above 43.2 µg/mL. `COC(=O)c1ccc(Oc2nc(SC)nc(N(C)C)n2)cc1`: the kinetic solubility worked out at 2.1 µg/mL (≈ 6.55 µM). `O=C(O)CC1(CC(=O)Nc2ccccc2Br)CCCC1` displayed a kinetic solubility above 51 µg/mL. In the case of `CCN1CCN(Cc2cc(OC)c3c(c2)OCO3)CC1`, the solubility (kinetic) was found to be 33.9 µg/mL (≈ 122 µM). Compound `CCC(NC(=S)NC1CCCCC1)c1ccccc1` (stereo not given) returned a kinetic solubility of 3.8 µg/mL (≈ 13.7 µM). For `S=C(Nc1ccc2nccnc2c1)N1CCCC1`, the solubility (kinetic) was above 38.8 µg/mL. `O=c1oc2ccccc2n1Cc1cccc(Cl)c1`: the kinetic solubility amounted to 0.8 µg/mL (≈ 3.08 µM). In turn, `O=C(Nc1ccccc1F)NC1CCCc2ccccc21` (stereo not given) displayed a solubility (kinetic) of 2 µg/mL (≈ 7.03 µM). For the compound `NC(=O)C1CCN(CC(O)COCc2ccccc2Cl)CC1` (stereo not given), the kinetic solubility is above 49 µg/mL. The compound `O=C(NC1=NCCS1)c1ccc(F)c(S(=O)(=O)N2CCOCC2)c1` displayed a kinetic solubility above 56 µg/mL.

The compound `O=[N+]([O-])c1ccc(NCCOc2ccccc2Cl)nc1` registered a kinetic solubility of 1.7 µg/mL (≈ 5.79 µM).

`COc1ccccc1C(=O)OC(C)CN1CCN(C)CC1.Cl` (stereo not given) gave a kinetic solubility above 49.3 µg/mL. Under `COC(=O)c1cn(C(=O)c2cc(Cl)ccc2Cl)c2ccccc12` stands below 0.7 µg/mL. `c1ccc2sc(C3CCNCC3)nc2c1` returned a kinetic solubility above 32.7 µg/mL. `Cc1ccc(C(=O)N2CCN(c3ccccn3)CC2)cc1` registered a kinetic solubility above 42.2 µg/mL.
